Data published in patent US10065990B2, “Cyclic peptide compound, and preparation method, pharmaceutical composition and use thereof” (HANGZHOU GUANYU BIO-MEDICAL CO., LTD, priority 2013, dated 2018).
Where two headings read alike, the source gives them in different places.

Legend:
HDAC7 = biological target: T1, HDAC7 (Homo sapiens, UniProt Q8WUI4); experiment: HDAC biochemical activity measurement (fluorescent substrate deacetylation);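 also: fluorogenic deacetylation assay using acetyl-lysine substrate at 20 µM, enzyme and compound incubated 30 min at 37 °C, then developer added, fluorescence read at 360/460 nm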; details: HDAC7; 37° C. 30 minutes
T1 sequence (Q8WUI4 1-952): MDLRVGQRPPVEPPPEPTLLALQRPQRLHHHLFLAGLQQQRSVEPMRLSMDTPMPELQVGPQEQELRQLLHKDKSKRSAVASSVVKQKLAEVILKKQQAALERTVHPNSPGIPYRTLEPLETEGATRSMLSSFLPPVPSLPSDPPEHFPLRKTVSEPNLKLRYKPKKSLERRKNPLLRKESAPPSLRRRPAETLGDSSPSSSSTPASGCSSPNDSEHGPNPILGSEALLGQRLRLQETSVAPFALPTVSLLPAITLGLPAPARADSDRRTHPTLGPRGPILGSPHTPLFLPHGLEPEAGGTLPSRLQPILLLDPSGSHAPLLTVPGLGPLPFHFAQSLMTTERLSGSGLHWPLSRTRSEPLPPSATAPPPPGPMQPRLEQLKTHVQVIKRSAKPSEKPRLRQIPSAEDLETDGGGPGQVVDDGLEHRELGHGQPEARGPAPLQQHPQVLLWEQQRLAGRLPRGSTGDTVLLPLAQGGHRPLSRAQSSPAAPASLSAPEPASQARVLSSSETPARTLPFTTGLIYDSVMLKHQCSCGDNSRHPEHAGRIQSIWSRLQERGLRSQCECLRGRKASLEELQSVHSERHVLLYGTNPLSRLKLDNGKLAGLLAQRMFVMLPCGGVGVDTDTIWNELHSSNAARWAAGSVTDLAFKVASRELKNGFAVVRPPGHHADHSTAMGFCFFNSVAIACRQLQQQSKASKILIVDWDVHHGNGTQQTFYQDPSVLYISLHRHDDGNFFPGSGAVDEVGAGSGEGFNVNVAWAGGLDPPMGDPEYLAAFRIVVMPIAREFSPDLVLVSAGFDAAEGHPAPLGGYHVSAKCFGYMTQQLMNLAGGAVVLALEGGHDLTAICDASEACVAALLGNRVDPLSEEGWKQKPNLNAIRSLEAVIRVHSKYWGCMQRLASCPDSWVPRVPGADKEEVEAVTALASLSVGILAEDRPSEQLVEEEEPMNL

[1] = tested on: HT1080 (human fibrosarcoma cells); experiment: MTT cancer cell growth inhibition; assay type: cell-based; details: Homo sapiens, HT-1080, 72 h, MTT, 72 hours incubation, read-out: GI50 HT1
Method in brief: (§1)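 MTT viability, 570 nm, GI50. Cells 1500/well; compound 72 h at final 10^−5–10^−10 M in triplicate.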

[2] = tested on: MCF-7 (human breast cancer cells); experiment: MTT cancer cell growth inhibition; assay type: cell-based; details: Homo sapiens, MCF7, 72 h, 72 hours incubation, read-out: GI50 MCF
Method in brief: as §1

[3] = tested on: HCC827 (human non-small cell lung cancer cells); experiment: MTT cancer cell growth inhibition; assay type: cell-based; details: Homo sapiens, HCC827, 72 h, MTT, 72 hours incubation, HCC827 cells; read-out: GI50 HCC827
Method in brief: as §1

[4] = tested on: Bel-7402 (human hepatoma cells); experiment: MTT cancer cell growth inhibition; assay type: cell-based; details: Homo sapiens, Bel-7402, 72 h, MTT, 72 hours incubation, Bel-7402 cells; read-out: GI50 Bel-7402
Method in brief: as §1

[5] = tested on: K562 (human leukemia cells); experiment: MTT cancer cell growth inhibition; assay type: cell-based; details: Homo sapiens, K562, 72 h, MTT, 72 hours incubation, K562 cells; read-out: GI50 K562
Method in brief: as §1

[6] = tested on: KBM5-T315I (human chronic myelogenous leukemia); experiment: MTT cancer cell growth inhibition; assay type: cell-based; details: Homo sapiens, 72 h, MTT, 72 hours incubation, KBM5-T315I cells; read-out: GI50 KBM5-T315I
Method in brief: as §1

HDAC8 = biological target: T2, HDAC8 (Homo sapiens, UniProt Q9BY41); experiment: HDAC biochemical activity measurement (fluorescent substrate deacetylation); details: 37° C. 30 minutes
T2 sequence (Q9BY41 1-377): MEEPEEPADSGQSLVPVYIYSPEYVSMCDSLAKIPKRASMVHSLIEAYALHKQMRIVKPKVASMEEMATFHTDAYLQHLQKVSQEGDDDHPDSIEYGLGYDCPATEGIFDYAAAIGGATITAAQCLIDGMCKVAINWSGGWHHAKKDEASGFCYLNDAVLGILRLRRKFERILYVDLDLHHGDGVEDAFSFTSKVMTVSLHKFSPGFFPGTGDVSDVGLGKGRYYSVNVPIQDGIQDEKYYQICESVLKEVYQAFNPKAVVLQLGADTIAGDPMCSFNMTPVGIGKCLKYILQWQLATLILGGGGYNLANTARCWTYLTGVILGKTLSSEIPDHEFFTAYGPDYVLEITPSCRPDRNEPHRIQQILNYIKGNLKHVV

HDAC3 = HDAC3 (Homo sapiens, UniProt O15379); experiment: as above;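 also: fluorogenic acetyl-lysine substrate (20 µM) deacetylated by HDAC3, then developer added for 15 min at room temperature, release of fluorophore read at excitation 360 nm, emission 460 nm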
Chain of HDAC3 (O15379 whole entry, species assumed): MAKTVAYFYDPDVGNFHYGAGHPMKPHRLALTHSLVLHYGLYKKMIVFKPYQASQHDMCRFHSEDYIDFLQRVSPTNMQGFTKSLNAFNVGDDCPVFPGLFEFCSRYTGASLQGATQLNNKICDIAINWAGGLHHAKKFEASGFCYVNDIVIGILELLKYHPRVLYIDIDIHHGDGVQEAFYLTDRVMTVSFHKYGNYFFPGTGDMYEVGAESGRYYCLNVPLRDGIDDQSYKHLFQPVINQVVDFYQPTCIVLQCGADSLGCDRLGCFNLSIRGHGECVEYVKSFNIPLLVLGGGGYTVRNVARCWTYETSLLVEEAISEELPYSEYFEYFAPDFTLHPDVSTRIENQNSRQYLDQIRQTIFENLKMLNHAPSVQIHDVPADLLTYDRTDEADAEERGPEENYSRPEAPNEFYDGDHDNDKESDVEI
Chain of HDAC3 (Q9Y618 395-489 partner limits assumed, species assumed): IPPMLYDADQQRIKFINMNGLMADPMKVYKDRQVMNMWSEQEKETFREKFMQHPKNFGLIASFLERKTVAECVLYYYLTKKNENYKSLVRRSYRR
Method: (§2) The chemical activity of the compound is determined according to the degree of deacetylation inhibition of the HDAC enzyme. This experiment measured the degree of deacetylation related to tumor proliferation and metastasis of HDAC1, HDAC2, HDAC3, HDAC8, HDAC11 five subtypes HDAC enzymes. After the substrate containing an acetylated lysine side chain and HDAC enzyme are labeled with a fluorescent label, the fluorescent substrate is de acetyl. The fluorescent labeled substrate is cleaved by the enzyme, and the fluorescent substance is released, which generates 460 nm emission light under the excitation of 360 nm light.
(§3) HDAC substrate was diluted with reaction buffer to 200M (reaction concentration of 20M), the HDAC enzyme was diluted to the appropriate concentration, then added different concentrations of the test compounds and acted at 37° C. 30 minutes, and then added the same volume of 2-times concentration substrate developing solution (developer), incubated at room temperature for 15 minutes.

HDAC11 = biological target: T3, HDAC11 (Homo sapiens, UniProt Q96DB2); experiment: as above;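 also: HDAC11 enzyme acting on an acetyl-lysine fluorogenic substrate, then a developer frees the fluorophore, read at excitation 360 nm and emission 460 nm, IC50 over a compound dilution series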
T3 sequence (Q96DB2 1-347): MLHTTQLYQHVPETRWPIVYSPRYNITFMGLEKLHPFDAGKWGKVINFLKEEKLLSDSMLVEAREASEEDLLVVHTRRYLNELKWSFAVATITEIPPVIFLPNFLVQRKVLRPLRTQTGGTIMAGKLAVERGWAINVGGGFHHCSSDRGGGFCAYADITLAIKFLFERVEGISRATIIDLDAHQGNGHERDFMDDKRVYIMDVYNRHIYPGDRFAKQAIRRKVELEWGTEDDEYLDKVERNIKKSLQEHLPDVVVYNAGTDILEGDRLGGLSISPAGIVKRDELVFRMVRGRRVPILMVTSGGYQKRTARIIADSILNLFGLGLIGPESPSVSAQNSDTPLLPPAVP

HDAC2 = HDAC2 (Homo sapiens, UniProt Q92769); experiment: as above; details: 37° C. 30 minutes;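 also: HDAC2 enzyme with an acetyl-lysine fluorescent substrate, then developer added, fluorescence read at excitation 360 nm and emission 460 nm, inhibition measured across several compound concentrations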
Chain of HDAC2 (Q92769 whole entry, species assumed): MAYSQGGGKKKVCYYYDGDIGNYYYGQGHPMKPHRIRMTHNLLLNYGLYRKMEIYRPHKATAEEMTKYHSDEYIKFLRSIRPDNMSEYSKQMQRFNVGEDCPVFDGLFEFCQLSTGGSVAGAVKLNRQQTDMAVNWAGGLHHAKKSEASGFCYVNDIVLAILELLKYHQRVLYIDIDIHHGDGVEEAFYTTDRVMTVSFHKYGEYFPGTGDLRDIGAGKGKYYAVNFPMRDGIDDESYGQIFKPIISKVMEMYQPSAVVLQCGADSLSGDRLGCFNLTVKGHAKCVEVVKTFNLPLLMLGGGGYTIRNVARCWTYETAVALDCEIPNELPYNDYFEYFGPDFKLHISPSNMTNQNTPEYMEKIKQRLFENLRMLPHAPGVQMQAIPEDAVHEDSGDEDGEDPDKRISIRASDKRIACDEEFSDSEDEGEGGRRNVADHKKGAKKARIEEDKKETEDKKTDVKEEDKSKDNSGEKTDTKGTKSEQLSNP
Method: as §2, §3

[7] = read-out: IC50 HDAC3, HDAC3, 37° C. 30 minutes
[8] = read-out: IC50 HDAC11, HDAC11, 37° C. 30 minutes

For `C/C=C1\NC(=O)c2cccc(n2)CNC(=O)C[C@@H](/C=C/CCSC(=O)CCCCCC)OC(=O)[C@H](C(C)C)NC1=O` [Compound 2], the “IC50 HDAC7” value (HDAC7) was “no activity”, the GI50 [1] was 50 nM and the GI50 [2] was 30 nM. It also gave a GI50 [3] of 42 nM, a GI50 [4] of 83 nM and a GI50 [5] of 51 nM. The GI50 [6] was 29 nM, the IC50 (HDAC8) was 252 nM and the IC50 (HDAC3; [7]) was 177 nM. For the same compound, the IC50 (HDAC11; [8]) was 102 nM and the IC50 (HDAC2) was 163 nM.

`C/C=C1\NC(=O)c2cccc(n2)CNC(=O)C[C@@H](/C=C/CCSC(=O)CCCCC)OC(=O)[C@H](C(C)C)NC1=O` [Compound 3] was tested, and the “IC50 HDAC7” value (HDAC7) was “no activity”, the GI50 [1] was 60 nM and the GI50 [2] was 30 nM. The GI50 [3] was 33 nM, the GI50 [4] was 97 nM and the GI50 [5] was 37 nM. It also gave a GI50 [6] of 34 nM, an IC50 (HDAC8) of 169 nM and an IC50 (HDAC3) of 145 nM. For the same compound, the IC50 (HDAC11) was 100 nM and the IC50 (HDAC2) was 158 nM.

`C/C=C1\NC(=O)c2nc(ccc2F)CNC(=O)C[C@@H](/C=C/CCSC(C)=O)OC(=O)[C@H](Cc2cccc3ccccc23)NC1=O` [Compound 78] was tested, and the “IC50 HDAC7” value (HDAC7) was “no activity”, the GI50 [1] was 70 nM and the GI50 [2] was 10 nM. For the same compound, the GI50 [3] was 72 nM, the GI50 [4] was 72 nM and the GI50 [5] was 46 nM. The GI50 [6] was 19 nM, the IC50 (HDAC8) was 39 nM and the IC50 (HDAC3; [7]) was 38 nM. For the same compound, the IC50 (HDAC11; [8]) was 94 nM and the IC50 (HDAC2) was 37 nM.

With `C/C=C1\NC(=O)c2nc(ccc2F)CNC(=O)C[C@@H](/C=C/CCSC(C)=O)OC(=O)[C@H](Cc2ccc(O)cc2)NC1=O` [Compound 81] the “IC50 HDAC7” value (HDAC7) was “no activity”, the GI50 [1] was 50 nM and the GI50 [2] was 30 nM. The GI50 [3] was 51 nM, the GI50 [4] was 51 nM and the GI50 [5] was 29 nM. It also gave a GI50 [6] of 34 nM, an IC50 (HDAC8) of 26 nM and an IC50 (HDAC3; [7]) of 16 nM. It also gave an IC50 (HDAC11; [8]) of 95 nM and an IC50 (HDAC2) of 31 nM.

`C=C1NC(=O)c2nc(ccc2F)CNC(=O)C[C@@H](/C=C/CCSC(C)=O)OC(=O)[C@H](C(C)C)NC1=O` [Compound 84] was tested, and the “IC50 HDAC7” value (HDAC7) was “no activity”, the GI50 [1] was 70 nM and the GI50 [2] was 20 nM. For the same compound, the GI50 [3] was 73 nM, the GI50 [4] was 73 nM and the GI50 [5] was 35 nM. For the same compound, the GI50 [6] was 26 nM, the IC50 (HDAC8) was 29 nM and the IC50 (HDAC3; [7]) was 29 nM. The IC50 (HDAC11; [8]) was 91 nM and the IC50 (HDAC2) was 43 nM.

In the case of `CC(=O)SCC/C=C/[C@@H]1CC(=O)NCc2cc(F)cc(n2)C(=O)NC(=C(C)C)C(=O)N[C@@H](C(C)C)C(=O)O1` [Compound 88], the “IC50 HDAC7” value (HDAC7) is reported as “no activity”, the GI50 [1] is reported as 60 nM and the GI50 [2] is reported as 20 nM. It also gave a GI50 [3] of 67 nM, a GI50 [4] of 67 nM and a GI50 [5] of 34 nM. It also gave a GI50 [6] of 24 nM, an IC50 (HDAC8) of 43 nM and an IC50 (HDAC3; [7]) of 41 nM. The IC50 (HDAC11; [8]) was 94 nM and the IC50 (HDAC2) was 35 nM.

With `C/C=C1\NC(=O)c2ccc(SC)c(n2)CNC(=O)C[C@@H](/C=C/CCSC(=O)CCCCCCC)OC(=O)[C@H](CC)NC1=O` [Compound 173] the “IC50 HDAC7” value (HDAC7) was “no activity”, the GI50 ([1]; HT1080 cells) was 70 nM and the GI50 ([2]; MCF-7 cells) was 20 nM. It also gave a GI50 [3] of 27 nM, a GI50 [4] of 22 nM and a GI50 [5] of 53 nM. It also gave a GI50 [6] of 12 nM, an IC50 (HDAC8) of 39 nM and an IC50 (HDAC3) of 37 nM. It also gave an IC50 (HDAC11) of 97 nM and an IC50 (HDAC2) of 31 nM.

With `C/C=C1\NC(=O)c2cc(C)cc(n2)CNC(=O)C[C@@H](/C=C/CCSC(C)=O)OC(=O)[C@H](Cc2ccccc2)NC1=O` [Example 67] the “IC50 HDAC7” value (HDAC7) was “no activity”, the GI50 [1] was 80 nM and the GI50 [2] was 20 nM. For the same compound, the GI50 [3] was 84 nM, the GI50 [4] was 84 nM and the GI50 [5] was 39 nM. The GI50 [6] was 26 nM, the IC50 (HDAC8) was 16 nM and the IC50 (HDAC3) was 28 nM. For the same compound, the IC50 (HDAC11) was 92 nM and the IC50 (HDAC2) was 34 nM.

`C/C=C1\NC(=O)c2ccc(F)c(n2)CNC(=O)C[C@@H](/C=C/CCSC(C)=O)OC(=O)[C@H](CCCCNC(=O)OCC2c3ccccc3-c3ccccc32)NC1=O` [Example 77] was tested, and the “IC50 HDAC7” value (HDAC7) was “no activity”, the GI50 [1] was 80 nM and the GI50 [2] was 30 nM. For the same compound, the GI50 [3] was 83 nM, the GI50 [4] was 83 nM and the GI50 [5] was 42 nM. It also gave a GI50 [6] of 37 nM, an IC50 (HDAC8) of 37 nM and an IC50 (HDAC3) of 26 nM. For the same compound, the IC50 (HDAC11) was 88 nM and the IC50 (HDAC2) was 29 nM.

In the case of `C/C=C1\NC(=O)c2cc(F)cc(n2)CNC(=O)C[C@@H](/C=C/CCSC(C)=O)OC(=O)[C@H](Cc2cccc3ccccc23)NC1=O` [Example 79], the “IC50 HDAC7” value (HDAC7) is reported as “no activity”, the GI50 [1] is reported as 90 nM and the GI50 [2] is reported as 20 nM. The GI50 [3] was 91 nM, the GI50 [4] was 91 nM and the GI50 [5] was 27 nM. It also gave a GI50 [6] of 28 nM, an IC50 (HDAC8) of 42 nM and an IC50 (HDAC3) of 27 nM. The IC50 (HDAC11) was 93 nM and the IC50 (HDAC2) was 19 nM.

For `C/C=C1\NC(=O)c2cc(F)cc(n2)CNC(=O)C[C@@H](/C=C/CCSC(C)=O)OC(=O)[C@H](Cc2ccc(O)cc2)NC1=O` [Example 82], the “IC50 HDAC7” value (HDAC7) was “no activity”, the GI50 [1] was 80 nM and the GI50 [2] was 30 nM. It also gave a GI50 [3] of 81 nM, a GI50 [4] of 81 nM and a GI50 [5] of 36 nM. For the same compound, the GI50 [6] was 38 nM, the IC50 (HDAC8) was 34 nM and the IC50 (HDAC3) was 53 nM. For the same compound, the IC50 (HDAC11) was 92 nM and the IC50 (HDAC2) was 49 nM.
